Data published in the supplement of paper PMC12076712.
One block for each molecule: values may come before it.

What was measured:
PIK3CD = PIK3CD (UniProt O00329); test: pIC50, kinobeads binding competition; conditions: cell material: Jurkat cells
Summary of the method: (§1)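 Fold changes relative to vehicle, from biological duplicates, were fitted with logistic dose-response models in the R drc package to give pIC50. These fold changes came from TMT10 LC-MS/MS quantification of digested Kinobeads-bound proteins. Compound was applied at nine concentrations (top 30 μM) either to live Jurkat cells in 1:4 steps for 60 min at 37 °C before lysis, or to Jurkat lysate or a 1:1:1:1 HEK293/K-562/HepG2/placenta lysate mix in 1:5 steps for 60 min at 4 °C.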

UniProt P05129 = test: pIC50, kinobeads binding competition; conditions: cell material: Jurkat cells
Summary of the method: as §1

CDK4 = CDK4 (UniProt P11802); test: pIC50, competition of probe 3 labelling in live cells; conditions: cell material: Jurkat cells
UniProt P06493 = test: as above; conditions: cell material: Jurkat cells
UniProt P45983 = test: as above; conditions: cell material: Jurkat cells
UniProt P45984 = test: as above; conditions: cell material: Jurkat cells
TWF1 = TWF1 (UniProt Q12792); test: pIC50, kinobeads binding competition; conditions: cell material: Lysate mix
Summary of the method: as §1

STRADB = STRADB (UniProt Q9C0K7); test: pIC50, kinobeads binding competition; conditions: cell material: Lysate mix
Summary of the method: as §1

UniProt Q9P286 = test: pIC50, kinobeads binding competition; conditions: cell material: Lysate mix
Summary of the method: as §1

UniProt P78368 = test: pIC50, kinobeads binding competition; conditions: cell material: Lysate mix
Summary of the method: as §1

UniProt P35590 = test: pIC50, kinobeads binding competition; conditions: cell material: Lysate mix
Summary of the method: as §1

UniProt Q05513 = test: pIC50, kinobeads binding competition; conditions: cell material: Lysate mix
Summary of the method: as §1

UniProt P19525 [1] = test: pIC50, kinobeads binding competition; conditions: cell material: Lysate mix
Summary of the method: as §1

UniProt P27361 = test: pIC50, competition of probe 3 labelling in live cells; conditions: cell material: Jurkat cells
UniProt Q9Y6E0 = test: as above; conditions: cell material: Jurkat cells
UniProt Q13188 = target: T1, UniProt Q13188; test: as above; conditions: cell material: Jurkat cells
T1 sequence (whole entry): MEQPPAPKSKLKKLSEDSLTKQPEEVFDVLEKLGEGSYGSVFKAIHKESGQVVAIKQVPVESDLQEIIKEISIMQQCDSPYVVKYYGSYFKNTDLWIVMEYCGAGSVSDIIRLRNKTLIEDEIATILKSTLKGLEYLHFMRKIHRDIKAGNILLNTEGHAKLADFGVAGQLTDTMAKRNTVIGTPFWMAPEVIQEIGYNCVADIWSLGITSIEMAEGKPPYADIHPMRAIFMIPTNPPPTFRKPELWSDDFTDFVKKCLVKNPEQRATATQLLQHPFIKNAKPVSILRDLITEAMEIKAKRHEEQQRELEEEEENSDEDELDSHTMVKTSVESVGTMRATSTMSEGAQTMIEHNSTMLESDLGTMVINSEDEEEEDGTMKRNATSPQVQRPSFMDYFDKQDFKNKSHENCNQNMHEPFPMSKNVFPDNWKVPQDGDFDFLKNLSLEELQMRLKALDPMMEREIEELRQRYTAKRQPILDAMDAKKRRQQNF

UniProt Q15208 = test: as above; conditions: cell material: Jurkat cells
LYPLA1 = LYPLA1 (UniProt O75608); test: as above; conditions: cell material: Jurkat cells
TLK2 = TLK2 (UniProt Q86UE8); test: as above; conditions: cell material: Jurkat cells
CAMKK2 = CAMKK2 (UniProt Q96RR4); test: as above; conditions: cell material: Jurkat cells
NT5C3B = NT5C3B (UniProt Q969T7); test: as above; conditions: cell material: Jurkat cells
UniProt P19525 [2] = test: as above; conditions: cell material: Jurkat cells
SCCPDH = SCCPDH (UniProt Q8NBX0); test: as above; conditions: cell material: Jurkat cells
IRAK1 = IRAK1 (UniProt P51617); test: as above; conditions: cell material: Jurkat cells
ABHD6 = ABHD6 (UniProt Q9BV23); test: as above; conditions: cell material: Jurkat cells
RABGGTB = RABGGTB (UniProt P53611); test: as above; conditions: cell material: Jurkat cells
TYRO3 = TYRO3 (UniProt Q06418); test: pIC50, kinobeads binding competition; conditions: cell material: Jurkat lysate
Summary of the method: as §1

RIPK1 = RIPK1 (UniProt Q13546); test: pIC50, kinobeads binding competition; conditions: cell material: Jurkat cells
Summary of the method: as §1

PASK = PASK (UniProt Q96RG2); test: pIC50, kinobeads binding competition; conditions: cell material: Jurkat cells
Summary of the method: as §1

UniProt Q6DT37 = test: pIC50, kinobeads binding competition; conditions: cell material: Lysate mix
Summary of the method: as §1

MTOR = MTOR (UniProt P42345); test: pIC50, kinobeads binding competition; conditions: cell material: Jurkat cells
Summary of the method: as §1

PAK6 = PAK6 (UniProt Q9NQU5); test: pIC50, kinobeads binding competition; conditions: cell material: Jurkat lysate
Summary of the method: as §1

Chain of UniProt P19525 (P19525 whole entry): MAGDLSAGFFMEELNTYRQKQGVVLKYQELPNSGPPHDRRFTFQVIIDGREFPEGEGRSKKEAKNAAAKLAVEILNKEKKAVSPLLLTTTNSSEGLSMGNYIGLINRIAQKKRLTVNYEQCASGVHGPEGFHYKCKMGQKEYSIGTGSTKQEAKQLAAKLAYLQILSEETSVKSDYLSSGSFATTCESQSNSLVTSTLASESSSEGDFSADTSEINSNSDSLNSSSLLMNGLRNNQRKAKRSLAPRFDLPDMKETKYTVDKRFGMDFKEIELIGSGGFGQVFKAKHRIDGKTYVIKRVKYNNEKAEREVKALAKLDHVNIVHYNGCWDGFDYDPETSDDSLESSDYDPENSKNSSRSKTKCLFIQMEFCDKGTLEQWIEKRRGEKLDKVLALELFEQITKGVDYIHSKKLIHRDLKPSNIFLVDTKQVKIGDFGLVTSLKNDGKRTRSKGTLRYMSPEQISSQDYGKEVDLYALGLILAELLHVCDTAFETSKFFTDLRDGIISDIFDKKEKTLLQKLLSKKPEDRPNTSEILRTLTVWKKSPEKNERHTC
Chain of UniProt P27361 (P27361 whole entry): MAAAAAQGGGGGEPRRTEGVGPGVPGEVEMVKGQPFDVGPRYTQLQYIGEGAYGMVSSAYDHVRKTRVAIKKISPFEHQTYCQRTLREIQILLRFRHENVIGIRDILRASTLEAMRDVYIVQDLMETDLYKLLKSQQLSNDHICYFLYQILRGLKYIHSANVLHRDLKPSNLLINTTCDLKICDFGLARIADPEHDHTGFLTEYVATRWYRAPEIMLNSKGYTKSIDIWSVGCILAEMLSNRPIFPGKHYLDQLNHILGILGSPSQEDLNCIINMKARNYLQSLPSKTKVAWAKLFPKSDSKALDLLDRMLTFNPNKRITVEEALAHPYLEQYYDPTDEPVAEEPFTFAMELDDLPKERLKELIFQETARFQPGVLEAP
Chain of STRADB (Q9C0K7 whole entry): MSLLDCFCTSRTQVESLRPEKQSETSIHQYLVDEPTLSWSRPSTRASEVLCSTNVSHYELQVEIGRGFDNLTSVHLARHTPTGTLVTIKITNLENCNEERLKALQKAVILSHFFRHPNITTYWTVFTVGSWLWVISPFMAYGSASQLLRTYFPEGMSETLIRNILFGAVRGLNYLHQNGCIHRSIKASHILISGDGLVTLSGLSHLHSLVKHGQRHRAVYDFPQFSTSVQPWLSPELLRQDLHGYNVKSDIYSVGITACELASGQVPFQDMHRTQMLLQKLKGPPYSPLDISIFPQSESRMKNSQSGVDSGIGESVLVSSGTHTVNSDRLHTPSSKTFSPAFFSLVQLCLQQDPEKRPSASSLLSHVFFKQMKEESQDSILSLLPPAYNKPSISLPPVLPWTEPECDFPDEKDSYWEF
Chain of UniProt P35590 (P35590 whole entry): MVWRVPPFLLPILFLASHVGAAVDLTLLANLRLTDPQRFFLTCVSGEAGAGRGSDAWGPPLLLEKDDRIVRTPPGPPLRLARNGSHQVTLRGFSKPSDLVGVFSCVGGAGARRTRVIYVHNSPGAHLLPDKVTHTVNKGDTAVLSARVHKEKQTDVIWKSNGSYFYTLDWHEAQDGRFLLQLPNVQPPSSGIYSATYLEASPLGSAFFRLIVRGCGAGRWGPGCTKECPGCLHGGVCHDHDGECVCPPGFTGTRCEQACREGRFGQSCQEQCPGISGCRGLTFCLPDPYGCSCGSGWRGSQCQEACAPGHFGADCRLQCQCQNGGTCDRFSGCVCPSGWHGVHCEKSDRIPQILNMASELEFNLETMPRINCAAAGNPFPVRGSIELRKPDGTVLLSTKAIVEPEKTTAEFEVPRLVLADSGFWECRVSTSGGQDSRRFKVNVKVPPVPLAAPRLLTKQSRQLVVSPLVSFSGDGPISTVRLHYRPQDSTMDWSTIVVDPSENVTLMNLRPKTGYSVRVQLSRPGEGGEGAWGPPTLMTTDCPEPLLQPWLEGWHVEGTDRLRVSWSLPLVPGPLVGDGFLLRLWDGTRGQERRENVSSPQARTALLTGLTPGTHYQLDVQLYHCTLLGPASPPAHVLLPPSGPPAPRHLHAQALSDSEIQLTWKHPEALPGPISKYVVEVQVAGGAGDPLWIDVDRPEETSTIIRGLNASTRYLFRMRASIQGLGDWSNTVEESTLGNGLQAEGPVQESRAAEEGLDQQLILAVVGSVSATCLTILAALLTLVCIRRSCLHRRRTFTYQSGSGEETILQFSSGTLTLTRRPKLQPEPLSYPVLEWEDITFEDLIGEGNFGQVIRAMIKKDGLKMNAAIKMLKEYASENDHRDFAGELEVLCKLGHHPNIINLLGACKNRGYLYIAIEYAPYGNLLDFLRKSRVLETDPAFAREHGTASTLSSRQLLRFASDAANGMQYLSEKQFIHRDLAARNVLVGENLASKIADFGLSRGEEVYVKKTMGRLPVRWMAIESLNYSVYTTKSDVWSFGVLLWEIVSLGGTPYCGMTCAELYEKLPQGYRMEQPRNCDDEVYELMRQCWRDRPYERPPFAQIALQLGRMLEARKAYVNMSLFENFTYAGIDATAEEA
Chain of UniProt P45983 (P45983 whole entry): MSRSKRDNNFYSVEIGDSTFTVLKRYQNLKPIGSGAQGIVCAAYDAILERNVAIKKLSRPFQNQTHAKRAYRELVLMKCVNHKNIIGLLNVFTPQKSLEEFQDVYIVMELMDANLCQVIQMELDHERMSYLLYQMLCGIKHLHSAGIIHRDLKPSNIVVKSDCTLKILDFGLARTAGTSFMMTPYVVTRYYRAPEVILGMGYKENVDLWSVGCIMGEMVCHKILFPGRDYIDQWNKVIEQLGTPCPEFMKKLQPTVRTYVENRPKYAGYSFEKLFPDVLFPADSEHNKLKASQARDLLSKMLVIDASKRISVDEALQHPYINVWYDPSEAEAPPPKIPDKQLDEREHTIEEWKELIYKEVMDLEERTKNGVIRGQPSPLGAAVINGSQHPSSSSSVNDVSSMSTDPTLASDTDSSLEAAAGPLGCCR
Chain of UniProt Q9Y6E0 (Q9Y6E0 whole entry, looked up): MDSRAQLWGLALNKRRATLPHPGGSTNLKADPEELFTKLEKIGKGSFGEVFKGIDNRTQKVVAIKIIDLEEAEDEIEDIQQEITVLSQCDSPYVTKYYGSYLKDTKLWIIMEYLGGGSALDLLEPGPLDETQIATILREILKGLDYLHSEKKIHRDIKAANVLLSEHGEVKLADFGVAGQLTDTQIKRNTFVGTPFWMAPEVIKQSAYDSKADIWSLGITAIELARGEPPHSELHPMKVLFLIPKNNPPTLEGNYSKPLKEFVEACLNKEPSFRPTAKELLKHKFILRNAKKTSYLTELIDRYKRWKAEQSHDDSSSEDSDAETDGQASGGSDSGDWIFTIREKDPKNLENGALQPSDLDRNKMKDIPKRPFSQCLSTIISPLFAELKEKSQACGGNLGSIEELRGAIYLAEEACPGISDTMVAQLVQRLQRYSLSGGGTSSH
Chain of SCCPDH (Q8NBX0 whole entry): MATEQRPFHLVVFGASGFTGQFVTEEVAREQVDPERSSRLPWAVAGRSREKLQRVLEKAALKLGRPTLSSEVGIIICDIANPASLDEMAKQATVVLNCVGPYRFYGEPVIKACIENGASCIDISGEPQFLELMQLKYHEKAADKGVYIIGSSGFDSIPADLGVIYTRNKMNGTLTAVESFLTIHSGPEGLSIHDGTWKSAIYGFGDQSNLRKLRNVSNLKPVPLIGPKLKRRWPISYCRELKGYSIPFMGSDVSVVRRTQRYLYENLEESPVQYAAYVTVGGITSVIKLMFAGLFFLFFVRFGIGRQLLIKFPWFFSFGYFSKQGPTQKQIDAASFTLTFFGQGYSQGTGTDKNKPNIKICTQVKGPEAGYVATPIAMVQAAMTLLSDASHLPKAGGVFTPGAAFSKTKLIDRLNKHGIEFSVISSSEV
Chain of UniProt Q15208 (Q15208 whole entry, looked up): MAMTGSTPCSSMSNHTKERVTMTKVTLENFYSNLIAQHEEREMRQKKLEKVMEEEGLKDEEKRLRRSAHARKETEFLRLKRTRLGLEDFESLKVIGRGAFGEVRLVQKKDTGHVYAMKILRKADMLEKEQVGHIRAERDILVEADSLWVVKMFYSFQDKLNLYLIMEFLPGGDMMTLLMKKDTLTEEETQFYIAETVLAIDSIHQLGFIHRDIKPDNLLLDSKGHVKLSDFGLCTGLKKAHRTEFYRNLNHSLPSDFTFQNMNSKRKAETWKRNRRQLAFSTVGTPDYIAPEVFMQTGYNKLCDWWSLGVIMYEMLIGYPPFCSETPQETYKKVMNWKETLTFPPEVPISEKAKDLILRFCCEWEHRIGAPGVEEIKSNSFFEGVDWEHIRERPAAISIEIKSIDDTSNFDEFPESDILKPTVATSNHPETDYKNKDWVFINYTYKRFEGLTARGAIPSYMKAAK

pIC50 (PIK3CD): < 4.52 | pIC50 (UniProt P05129): 4.77
Compound: O=C(NCCNC(=O)c1cc(Nc2cc(C3CC3)[nH]n2)nc(N2CCN(Cc3ccc(S(=O)(=O)F)cc3)CC2)n1)OC1CC/C=C/CCC1 (configuration not stated)

pIC50 (CDK4): < 4.52 | pIC50 (UniProt P06493): < 4.52 | pIC50 (UniProt P45983): < 4.52 | pIC50 (UniProt P45984): 4.6
Compound: CC#CC(=O)Nc1ccc2ncnc(Nc3cccc(Br)c3)c2c1 [EKI-785]

pIC50 (TWF1): < 4.52 | pIC50 (STRADB): < 4.52 | pIC50 (UniProt Q9P286): < 4.52 | pIC50 (UniProt P78368): < 4.52
Compound: Cc1cc(Nc2cc(C(=O)NCCNC(=O)OC3CC/C=C/CCC3)nc(N3CCN(Cc4ccc(S(=O)(=O)F)cc4)CC3)n2)n[nH]1 (configuration not stated)

pIC50 (UniProt P35590): < 4.52 | pIC50 (UniProt Q05513): < 4.52 | pIC50 (UniProt P19525 [1]): < 4.52
Compound: CCNC(=O)c1cc(Nc2cc(C)[nH]n2)nc(N2CCN(Cc3ccc(S(=O)(=O)F)cc3)CC2)n1

pIC50 (UniProt P27361): < 4.52 | pIC50 (UniProt Q9Y6E0): < 4.52 | pIC50 (UniProt Q13188): < 4.52 | pIC50 (UniProt Q15208): < 4.52 | pIC50 (LYPLA1): < 4.52 | pIC50 (TLK2): < 4.52 | pIC50 (CAMKK2): < 4.52 | pIC50 (NT5C3B): < 4.52 | pIC50 (UniProt P19525 [2]): < 4.52 | pIC50 (SCCPDH): < 4.52 | pIC50 (IRAK1): < 4.52 | pIC50 (ABHD6): < 4.52 | pIC50 (RABGGTB): < 4.52
Compound: CCc1cnn2c(NCc3ccc[n+]([O-])c3)cc(N3CCCC[C@H]3CCO)nc12 [dinaciclib]

Compound: C#CCNC(=O)c1cc(Nc2cc(C3CC3)[nH]n2)nc(N2CCN(Cc3ccc(S(=O)(=O)F)cc3)CC2)n1
pIC50 (TYRO3): < 4.52 | pIC50 (RIPK1): 5.32 | pIC50 (PASK): 4.7 | pIC50 (UniProt Q6DT37): < 4.52 | pIC50 (MTOR): < 4.52 | pIC50 (PAK6): 5.49
